Test systems include A498 renal; ACHN renal; BT-549 breast; EKVX NSCLC; LOX IMVI melanoma; M14 melanoma; MCF7 breast; NCI/ADR-RES ovarian; OVCAR-8 ovarian; RPMI-8226 leukemia; SF-539 CNS; T-47D breast; UACC-257 melanoma; MALME-3M melanoma.
Holding throughout (test): DTP human tumour cell line panel, 48 h

Molecules are shown by their SMILES.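 1) Cells in 96-well plates. 2) Compound, 48 h, 5 concentrations. 3) Linear interpolation between surrounding doses. 4) Unreached endpoint = highest concentration. The concentration for full growth arrest is given as TGI.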 A value given as a limit tells only on which side of the number the result lay.

The TGI is the concentration giving total growth inhibition. Higher therefore signals less potent growth arrest.

`COc1ccc2c(c1)nc1n2C(c2c(F)cccc2F)SC1` (configuration not stated): the total growth inhibition concentration (TGI) in the assay on A498 renal, with ACHN renal, in the assay on BT-549 breast, with EKVX NSCLC, in the assay with LOX IMVI melanoma and with M14 melanoma was above 100 µM in each case. The TGI in the assay with MCF7 breast, in the assay on NCI/ADR-RES ovarian, with OVCAR-8 ovarian, in the assay with RPMI-8226 leukemia, in the assay on SF-539 CNS and in the assay on T-47D breast was above 100 µM throughout. This molecule also returned a TGI with UACC-257 melanoma above 100 µM.
Take `CCCCC1=C(C(=O)N2CCOCC2)C2(OCCO2)C1Cl` (configuration not stated): the TGI in the assay with A498 renal is above 100 µM; with ACHN renal, 52.1 µM; in the assay with EKVX NSCLC, above 100 µM; in the assay with LOX IMVI melanoma, above 100 µM; in the assay with M14 melanoma, 33.9 µM; with MALME-3M melanoma, above 100 µM. Moreover, the TGI in the assay on MCF7 breast is above 100 µM; in the assay on NCI/ADR-RES ovarian, above 100 µM; in the assay with OVCAR-8 ovarian, above 100 µM; in the assay with SF-539 CNS, 37.8 µM; in the assay on T-47D breast, above 100 µM; with UACC-257 melanoma, 60.9 µM.
As to `CCCC[P+](CCCC)(CCCC)C(C(=O)OC)C(C(=O)OC)=C1SC(C(=O)OC)=C(C(=O)OC)S1` (configuration not stated), the TGI with ACHN renal, with BT-549 breast, with EKVX NSCLC, in the assay with LOX IMVI melanoma, with M14 melanoma and in the assay with MALME-3M melanoma was above 100 µM throughout. Moreover, the TGI with MCF7 breast, in the assay on NCI/ADR-RES ovarian, in the assay on OVCAR-8 ovarian, in the assay with RPMI-8226 leukemia, with T-47D breast and in the assay on UACC-257 melanoma was above 100 µM throughout.
As for `COc1ccccc1-c1n[nH]c(-c2ccccc2O)n1`, the concentration for total growth inhibition (TGI) in the assay on A498 renal, in the assay on ACHN renal, with BT-549 breast, with LOX IMVI melanoma, with M14 melanoma and in the assay on MCF7 breast was above 100 µM throughout. Further, the concentration for total growth inhibition (TGI) in the assay with NCI/ADR-RES ovarian, with OVCAR-8 ovarian, in the assay with RPMI-8226 leukemia, in the assay with SF-539 CNS, in the assay with T-47D breast and with UACC-257 melanoma was above 100 µM in each case.
`N#Cc1c(-c2cccc(Br)c2)cc(-c2ccc(Cl)cc2)nc1N`: the concentration for total growth inhibition (TGI) came out at 51.8 µM with ACHN renal; 99.3 µM with BT-549 breast; 56.7 µM with EKVX NSCLC; 30.5 µM with LOX IMVI melanoma; 41.1 µM in the assay on M14 melanoma; 70.9 µM with MALME-3M melanoma. Besides, the concentration for total growth inhibition (TGI) with MCF7 breast is above 100 µM; in the assay on NCI/ADR-RES ovarian, 55.6 µM; in the assay on OVCAR-8 ovarian, above 100 µM; with RPMI-8226 leukemia, 45.7 µM; in the assay on SF-539 CNS, 39.5 µM; in the assay with T-47D breast, above 100 µM. Moreover, in the assay on UACC-257 melanoma, the TGI was 38.2 µM.
Consider `Cc1ccc(/C(O)=C/c2nc3ccccc3nc2NC23CC4CC(CC(C4)C2)C3)cc1`, for which the TGI with ACHN renal, in the assay on BT-549 breast, with LOX IMVI melanoma, with M14 melanoma, in the assay with MALME-3M melanoma and with MCF7 breast was above 10 µM throughout. The TGI with NCI/ADR-RES ovarian, in the assay with OVCAR-8 ovarian, in the assay with RPMI-8226 leukemia, with SF-539 CNS, in the assay on T-47D breast and in the assay on UACC-257 melanoma was above 10 µM in each case.
Take `COc1nc(N)nc2c1n(C)c[n+]2C`: the TGI in the assay with A498 renal, in the assay with ACHN renal, in the assay with BT-549 breast, in the assay with EKVX NSCLC, with LOX IMVI melanoma and with M14 melanoma was above 100 µM each time. Besides, the TGI in the assay with MALME-3M melanoma, with NCI/ADR-RES ovarian, in the assay with OVCAR-8 ovarian, in the assay on RPMI-8226 leukemia, with SF-539 CNS and in the assay on T-47D breast was above 100 µM each time. The molecule further gave a TGI in the assay on UACC-257 melanoma above 100 µM.
For the molecule `CCCCCCCCCCCCOCCCCCCCCC/C=C/c1ccc2c(c1)OCCOCCOCCOCCO2`, the TGI in the assay on ACHN renal was 43.1 µM; with BT-549 breast, 40.6 µM; in the assay on EKVX NSCLC, 61.6 µM; in the assay on LOX IMVI melanoma, 38.9 µM; in the assay on M14 melanoma, 88.9 µM; with MALME-3M melanoma it was 66.8 µM. The TGI came to 32 µM with MCF7 breast; 34.8 µM with NCI/ADR-RES ovarian; 25.5 µM in the assay on OVCAR-8 ovarian; 64.5 µM with RPMI-8226 leukemia; 31.4 µM in the assay on SF-539 CNS; 48.2 µM in the assay with T-47D breast. Moreover, in the assay on UACC-257 melanoma, the TGI turned out to be 73.2 µM.
In the case of `C(=C\c1ccccc1)/Cn1nc(-c2ccccc2)nc1-c1cnccn1`, the TGI in the assay with BT-549 breast, in the assay on EKVX NSCLC, with LOX IMVI melanoma, with M14 melanoma, in the assay on MCF7 breast and with OVCAR-8 ovarian was above 100 µM each time. In addition, the TGI with RPMI-8226 leukemia, with SF-539 CNS, with T-47D breast and with UACC-257 melanoma was above 100 µM in each case.
Turning to `CC1CC/C(=C\c2ccc(Cl)cc2)C(=O)/C1=C\c1ccc(Cl)cc1` (configuration not stated), the TGI was 17.7 µM in the assay on A498 renal; above 100 µM in the assay with ACHN renal; 50.3 µM with BT-549 breast; 63.7 µM in the assay with EKVX NSCLC; above 100 µM in the assay on LOX IMVI melanoma; 48.8 µM in the assay on M14 melanoma. Moreover, the TGI in the assay on MCF7 breast, with OVCAR-8 ovarian, in the assay with T-47D breast and in the assay with UACC-257 melanoma was above 100 µM each time.
As for `CN(C(=O)C12C3C4C1C1C2C3C41C(=O)O)C(C)(C)C` (configuration not stated), the TGI with A498 renal, in the assay on ACHN renal, in the assay with BT-549 breast, in the assay on EKVX NSCLC, in the assay on LOX IMVI melanoma and in the assay with M14 melanoma was above 100 µM throughout. Moreover, the TGI in the assay on MCF7 breast, with NCI/ADR-RES ovarian, in the assay with OVCAR-8 ovarian, with SF-539 CNS, with T-47D breast and in the assay with UACC-257 melanoma was above 100 µM in each case.

(Values after PubChem BioAssay (NCI).)
